Test results taken from patent US8541445B2, “Pyrazolopyridines” (Vertex Pharmaceuticals Incorporated, priority 2009, dated 2013).
pKi: −log10 of the molar value.

Assays:
Format in all cases: biochemical
[1] = target: PKC alpha kinase (Homo sapiens, UniProt P17252); test: PKC alpha kinase inhibition, coupled-enzyme NADH absorbance assay; settings: 4.5 nM PKC alpha kinase, 130 μM ATP, 100 μM CaCl2, 30° C.
Description: An assay buffer solution was prepared which consisted of 100 mM HEPES (pH 7.5), 10 mM MgCl2, 25 mM NaCl, 0.1 mM EDTA, 100 μM CaCl2 and 0.01% Brij. An enzyme buffer containing reagents to final assay concentrations of 0.002% Triton X-100, 100 μg/mL Phosphatidylserine, 20 μg/mL Diacylglycerol, 360 μM NADH, 3 mM phosphoenolpyruvate, […], 24 μg/mL lactate dehydrogenase, 2 mM DTT, 150 μM substrate peptide (RRRRRKGSFKRKA SEQ ID NO. 3) and 4.5 nM PKC alpha kinase was prepared in assay buffer. To 16 μL of this enzyme buffer, in a 384 well plate, was added 1 μL of VRT stock solution in DMSO. The mixture was allowed to equilibrate for 10 mins at 30° C. The enzyme reaction was initiated by the addition of 16 μL stock ATP solution prepared in assay buffer to a final assay concentration of 130 μM. Initial rate data was determined from the rate of change of absorbance at 340 nm (corresponding to stoichiometric consumption of NADH) using a Molecular Devices Spectramax plate reader (Sunnyvale, Calif.) over 15 mins at 30° C. For each Ki determination 12 data points covering the VRT concentration range of 0-20 μM were obtained in duplicate (DMSO stocks were prepared from an initial 10 mM VRT stock with subsequent 1:2 serial dilutions). Ki values were calculated from initial rate data by non-linear regression using the Prism software package (Prism 4.0a, Graphpad Software, San Diego, Calif.).

[2] = target: PKC delta kinase (Homo sapiens, UniProt Q05655); test: PKC delta kinase inhibition, coupled-enzyme NADH absorbance assay; settings: 46 nM PKC delta kinase, 150 μM ATP, 30° C.
Description: An assay buffer solution was prepared which consisted of 100 mM HEPES (pH 7.5), 10 mM MgCl2, 25 mM NaCl, 0.1 mM EDTA and 0.01% Brij. An enzyme buffer containing reagents to final assay concentrations of 0.002% Triton X-100, 200 μg/mL Phosphatidylserine, 20 μg/mL Diacylglycerol, 360 μM NADH, 3 mM phosphoenolpyruvate, 70 μg/mL pyruvate kinase, 24 μg/mL lactate dehydrogenase, 2 mM DTT, 150 μM substrate peptide (ERMRPRKRQGSVRRRV SEQ ID NO. 2) and 46 nM PKC delta kinase was prepared in assay buffer. To 16 μL of this enzyme buffer, in a 384 well plate, was added 1 μL of VRT stock solution in DMSO. The mixture was allowed to equilibrate for 10 mins at 30° C. The enzyme reaction was initiated by the addition of 16 μL stock ATP solution prepared in assay buffer to a final assay concentration of 150 μM. Initial rate data was determined from the rate of change of absorbance at 340 nm (corresponding to stoichiometric consumption of NADH) using a Molecular Devices Spectramax plate reader (Sunnyvale, Calif.) over 15 mins at 30° C. For each Ki determination 12 data points covering the VRT concentration range of 0-20 μM were obtained in duplicate (DMSO stocks were prepared from an initial 10 mM VRT stock with subsequent 1:2 serial dilutions). Ki values were calculated from initial rate data by non-linear regression using the Prism software package (Prism 4.0a, Graphpad Software, San Diego, Calif.).

[3] = target: PKC theta kinase (Homo sapiens, UniProt Q04759); test: PKC theta kinase inhibition, coupled-enzyme NADH absorbance assay; settings: 18 nM PKC theta kinase, 240 μM ATP, 30° C.
Description: An assay buffer solution was prepared which consisted of 100 mM HEPES (pH 7.5), 10 mM MgCl2, 25 mM NaCl, 0.1 mM EDTA and 0.01% Brij. An enzyme buffer containing reagents to final assay concentrations of 0.00001% Triton X-100, 200 μg/mL Phosphatidylserine, 20 μg/mL Diacylglycerol, 360 μM NADH, 3 mM phosphoenolpyruvate, 70 μg/mL pyruvate kinase, 24 μg/mL lactate dehydrogenase, 2 mM DTT, 100 μM substrate peptide (ERMRPRKRQGSVRRRV SEQ ID NO. 1) and 18 nM PKC theta kinase was prepared in assay buffer. To 60 μL of this enzyme buffer, in a 384 well plate, was added 2 μL of VRT stock solution in DMSO. The mixture was allowed to equilibrate for 10 mins at 30° C. The enzyme reaction was initiated by the addition of 5 μL stock ATP solution prepared in assay buffer to a final assay concentration of 240 μM. Initial rate data was determined from the rate of change of absorbance at 340 nm (corresponding to stoichiometric consumption of NADH) using a Molecular Devices Spectramax plate reader (Sunnyvale, Calif.) over 15 mins at 30° C. For each Ki determination 12 data points covering the VRT concentration range of 0-20 μM were obtained in duplicate (DMSO stocks were prepared from an initial 10 mM VRT stock with subsequent 1:2 serial dilutions). Ki values were calculated from initial rate data by non-linear regression using the Prism software package (Prism 4.0a, Graphpad Software, San Diego, Calif.).

PKC delta kinase, sequence (Q05655 whole entry): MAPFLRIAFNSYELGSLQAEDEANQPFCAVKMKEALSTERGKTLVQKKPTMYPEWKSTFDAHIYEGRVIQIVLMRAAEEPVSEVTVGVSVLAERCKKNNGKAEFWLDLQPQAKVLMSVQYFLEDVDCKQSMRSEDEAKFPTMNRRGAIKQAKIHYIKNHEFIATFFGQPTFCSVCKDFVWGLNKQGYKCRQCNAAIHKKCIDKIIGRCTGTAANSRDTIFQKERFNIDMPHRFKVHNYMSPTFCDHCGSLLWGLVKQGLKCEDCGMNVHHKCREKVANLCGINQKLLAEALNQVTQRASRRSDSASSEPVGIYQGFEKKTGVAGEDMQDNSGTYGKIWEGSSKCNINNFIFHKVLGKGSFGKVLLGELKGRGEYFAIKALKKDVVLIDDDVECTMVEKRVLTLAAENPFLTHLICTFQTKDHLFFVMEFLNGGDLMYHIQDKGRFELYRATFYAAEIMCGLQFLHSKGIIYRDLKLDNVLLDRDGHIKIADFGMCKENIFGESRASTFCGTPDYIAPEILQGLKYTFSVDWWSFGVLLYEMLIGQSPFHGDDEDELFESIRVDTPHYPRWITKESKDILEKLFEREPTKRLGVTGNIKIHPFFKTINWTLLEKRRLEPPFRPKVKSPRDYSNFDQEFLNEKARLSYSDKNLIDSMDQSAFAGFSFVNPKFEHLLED
PKC theta kinase, sequence (Q04759 whole entry): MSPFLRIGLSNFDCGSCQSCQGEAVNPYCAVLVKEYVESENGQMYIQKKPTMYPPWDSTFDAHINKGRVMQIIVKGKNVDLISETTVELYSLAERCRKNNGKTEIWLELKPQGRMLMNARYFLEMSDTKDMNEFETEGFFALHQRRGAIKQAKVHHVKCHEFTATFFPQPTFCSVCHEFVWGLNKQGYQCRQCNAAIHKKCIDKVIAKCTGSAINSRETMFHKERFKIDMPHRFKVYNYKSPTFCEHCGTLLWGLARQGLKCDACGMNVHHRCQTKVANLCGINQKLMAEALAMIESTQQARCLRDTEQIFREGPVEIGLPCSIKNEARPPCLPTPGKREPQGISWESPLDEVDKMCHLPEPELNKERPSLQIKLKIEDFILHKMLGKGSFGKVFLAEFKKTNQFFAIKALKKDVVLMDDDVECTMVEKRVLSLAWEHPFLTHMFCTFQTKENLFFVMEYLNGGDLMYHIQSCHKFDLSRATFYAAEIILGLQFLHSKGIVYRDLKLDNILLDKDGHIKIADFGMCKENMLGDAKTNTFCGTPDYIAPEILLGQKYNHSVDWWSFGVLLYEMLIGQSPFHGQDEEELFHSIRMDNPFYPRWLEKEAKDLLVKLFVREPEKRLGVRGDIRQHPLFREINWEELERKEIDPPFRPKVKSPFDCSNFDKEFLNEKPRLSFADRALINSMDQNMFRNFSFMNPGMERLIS

Compound | pKi [1] | pKi [2] | pKi [3]
CCC(C#N)n1cc(-c2ccnc3[nH]ncc23)cn1 (stereo not drawn) [Compound 15, 2-(4-(1H-pyrazolo[3,4-b]pyridin-4-yl)-1H-pyrazol-1-yl)butanenitrile] | < 5.90 | > 5.55 | > 6.30
NCCn1cc(-c2ccnc3[nH]ncc23)cn1 [Compound 16] | < 5.90 | > 5.55 | > 6.30
CCC(C)(CN)c1csc(-c2ccnc3[nH]nc(Cl)c23)n1 (stereo not drawn) [Compound 11] | > 6.30 | > 7.30 | > 7.30
CCC(C)(C#N)c1csc(-c2ccnc3[nH]ncc23)n1 (stereo not drawn) [Compound 6] | > 5.55 | > 6.30 | > 7.30
CC(C)(CN)c1csc(-c2ccnc3[nH]ncc23)n1 [Compound 3, 2-(2-(1H-pyrazolo[3,4-b]pyridin-4-yl)thiazol-4-yl)-2-methylpropan-1-amine] | > 5.55 | > 6.30 | > 7.30
Cc1sc(-c2ccnc3[nH]ncc23)nc1C(C)(C)CN [Compound 4, 2-methyl-2-(5-methyl-2-(1H-pyrazolo[3,4-b]pyridin-4-yl)thiazol-4-yl)propan-1-amine] | > 5.55 | > 6.30 | > 6.30
CCC(C)(CN)c1csc(-c2ccnc3[nH]ncc23)n1 (stereo not drawn) [Compound 10] | > 5.55 | > 6.30 | > 7.30
CCC(C)(CN)c1ccsc1-c1ccnc2[nH]ncc12 (stereo not drawn) [Compound 14] | < 5.90 | < 5.70 | > 6.30
N#CCc1csc(-c2ccnc3[nH]ncc23)n1 [Compound 1, 2-(2-(1H-pyrazolo[3,4-b]pyridin-4-yl)thiazol-4-yl)ethanenitrile] | < 5.90 | > 5.55 | > 6.30
CCC(CN)n1cc(-c2ccnc3[nH]ncc23)cn1 (stereo not drawn) [Compound 17, 2-(4-(1H-pyrazolo[3,4-b]pyridin-4-yl)-1H-pyrazol-1-yl)butan-1-amine] | < 5.90 | > 5.55 | > 5.55
CC(C)(C#N)c1csc(-c2ccnc3[nH]ncc23)n1 [Compound 2, 2-(2-(1H-pyrazolo[3,4-b]pyridin-4-yl)thiazol-4-yl)-2-methyl propanenitrile] | > 5.55 | > 6.30 | > 7.30
CCC(C)(C#N)c1csc(-c2ccnc3[nH]nc(Cl)c23)n1 (stereo not drawn) [Compound 8] | > 5.55 | > 6.30 | > 7.30
CCC(C#N)c1csc(-c2ccnc3[nH]ncc23)n1 (stereo not drawn) [Compound 5] | > 6.30 | > 6.30 | > 7.30
CCC(CN)c1csc(-c2ccnc3[nH]ncc23)n1 (stereo not drawn) [Compound 9] | < 5.90 | > 6.30 | > 7.30
CCC(C#N)(CC)c1csc(-c2ccnc3[nH]ncc23)n1 [Compound 7] | > 6.30 | > 6.30 | > 7.30
CC1(CN)CCCc2sc(-c3ccnc4[nH]ncc34)nc21 (stereo not drawn) [Compound 12, (4-methyl-2-(1H-pyrazolo[3,4-b]pyridin-4-yl)-4,5,6,7-tetrahydrobenzo[d]thiazol-4-yl)methanamine] | < 5.90 | > 5.55 | > 6.30
CCC(C)(CN)c1csc(-c2ccnc3[nH]ncc23)c1 (stereo not drawn) [Compound 13, 2-(5-(1H-pyrazolo[3,4-b]pyridin-4-yl)thiophen-3-yl)-2-methylbutan-1-amine] | > 6.30 | > 6.30 | > 7.30
